# Experimental data from patent US20250235501A1, “Methods and Compositions for Treating or Preventing Neurological Injury or Neurological Disorders” (University of Connecticut, priority 2024, published 2025).
# Test system: ERK and CREB activities (pERK1/2, pCREB)
# Experiment: ERK and CREB activities in brains of mice subjected to MCAO (WB)
# Format: in vivo, mouse
# Details: WT mice; peptide ip 15 min before MCAO or sham
# Method: FIGS. 7I-7K show the effects of TAT-EE3 and Trpm2 deletion on ERK and CREB activities in mice subjected to MCAO. […] TAT-EE3 or TAT-SC was ip administrated to WT mice 15 min before MCAO or sham surgeries. FIGS. 7J and 7K show the quantification of pERK1/2 and pCREB expressed in the brains after MCAO or sham procedure (***, p<0.001; ANOVA, Bonferroni's test; mean±SEM, n=4/group).
# Eight-to nine-week-old male mice (˜25 g) were subjected to right middle cerebral artery occlusion (MCAO) for 120 min followed by 24 hours of reperfusion. The genotype information was blinded to the surgeon who conduct the surgeries. […] Mouse body temperature was monitored by a rectal temperature probe and maintained at ˜ 37° C. with an automatic temperature-regulating heating pad connected to animal temperature controller (TCA T-2DF, Physitemp). Cerebral blood flow was monitored after occlusion as well as after reperfusion. […] Successful occlusion was confirmed by 85% reduction of cerebral blood flow monitored by Laser Doppler Flowmetry (LDF) with laser Doppler blood FlowMeter (Moor-VMS-LDF1, Moor Instrument, Dever, UK). […]
# NP-40/Triton lysis buffer ([…], 1% Triton™ X-100, 150 mM NaCl, 1 mM EDTA, 50 mM Tris, pH=8.0) containing proteinase inhibitors and phosphatase inhibitors was used to lyse both cultured cells and frozen brain tissue. […] Protein concentration was measured using Pierce™ Rapid Gold BCA Protein Assay Kit. […]
substance,measurement,value
"TAT-EE3: membrane permeable disrupting peptide, sequence YGRKKRRQRRREEDTDSSEEMLALAEE (SEQ ID NO: 4)",pCREB level in MCAO brains vs sham control brains,no reduction
same,pERK1/2 level in MCAO brains vs sham control brains,no reduction
